These results are taken from publication PMC11609934, “Exploration and characterization of the antimalarial activity of cyclopropyl carboxamides that target the mitochondrial protein, cytochrome b” (European Journal of Medicinal Chemistry, 2024).

Read-outs that look alike come from different tables or passages of the source.

The subject of data set [1] is Pf Dd2 expressing ScDHODH. Details: method as in Nguyen, Dans et al. [8]. Conditions: known drug controls; ref Nguyen, Dans et al. [8]; cited from earlier work.
The subject of data set [2] is mitochondrial ETC. Briefly: P. falciparum oxygen consumption rate (OCR) assay (Seahorse XFe96). Type of data set: cell-based, Plasmodium falciparum. Conditions: compounds 5 μM. The procedure: To provide further evidence to support the cyclopropyl carboxamide series targeting cyt b, an oxygen consumption rate (OCR) assay was performed using a Seahorse XFe96 Flux Analyzer. The primary role of the mitochondria ETC is to produce ATP oxidative phosphorylation, and thus the oxygen consumption directly quantifies mitochondrial ETC activity. In this assay, malate, which is a substrate of malate quinone dehydrogenase (MQD), was added to provide a base line of oxygen consumption at approximately 50 pmol/min (Fig. 4). […] Finally, NaN3 was added to inhibit complex IV to bring the OCR back to basal levels.
Fig. 4 P. falciparum oxygen consumption rate (OCR) assay. Data represent the means and SDs of 3 technical replicates. Time points and reagent injections were as follows, 1. First 5 timepoints measured the basal level of malate-dependent OCR; 2. Compounds (5 μM) were injected independently (indicated by arrow), and OCR measured for 8-timepoints; 3. TMPD (a cytochrome c electron donor) was injected, and OCR measured for 5 time points; 4. NaN3 (a complex IV inhibitor) was then added, and OCR measured for 5 time points.
ETC Biosensor Assay. This assay was performed as previously described. Briefly, 3 × 10^8 trophozoite infected RBCs were purified using the SuperMACS II separator (Miltenyi Biotec, Germany). The trophozoite-stage parasites were released from erythrocytes by treating them with 0.05 % (w/v) pre-warmed saponin in phosphate-buffered saline (PBS) at 37 °C for 3 min. The cells were washed with pre-warmed PBS, three times. […] The cells were measured for oxygen consumption rate (OCR) using Seahorse XFe96 flux analyzer (Agilent). The OCR was assessed for five cycles of 20 s mixing, 1 min waiting, 2.5 min measuring to establish baseline OCR before any substrate injections, for eight cycles of 20 s mixing, 1 min waiting followed by 2.5 min measuring after inhibitor injection from port A and for five cycles of 20 s mixing 1 min waiting, 2.5 min measuring after TMPD, and NaN3, injections.

The subject of data set [3] is ring-stage P. falciparum parasites. In words: Asexual stage of arrest assay. Type of data set: cell-based, Plasmodium falciparum. The following applies: 10 times EC50, sampled every 12 h for 48 h. On the procedure:
Characterization of asexual stage phenotype and rate of asexual kill is important in determining the downstream application and TCP of an antimalarial series. […] Parasites were sampled every 12 h for 48 h, to prepare Giemsa-stained blood smears for analysis by microscopy. Parasitemia of each sample was measured by flow cytometry using SYBR-Green DNA staining.
Asexual Stage of Arrest Assay. This assay was conducted as previously described.

The subject of data set [4] is Pf SB1-A6 strain. Details: method as in Nguyen, Dans et al. [8]. Conditions: known drug controls; ref Nguyen, Dans et al. [8]; cited from earlier work.
Data set [5] deals with W499-resistant populations. In words: microbe, parasite or virus in culture. The format is cell-based, Plasmodium falciparum. Conditions: for EC50: Plasmodium falciparum. From the text: To confirm if W466 (1) and W499 (2) may have the same molecular target, W466 (1) and W499 (2) were each evaluated for cross resistance against their respective resistant populations from the pulsed forward genetic study (Fig. 2).

In data set [6] the test system is W466-resistant populations. In words: 72 h growth assay against W466-resistant populations. Type of data set: cell-based, Plasmodium falciparum. Conditions: Plasmodium falciparum. From the text: To determine the mechanism of action of the cyclopropyl carboxamide series, a forward genetic resistance study was undertaken on the two hit compounds W466 (1) and W499 (2).
The structures of W466 (1) and W499 (2) are slightly different although they appear to belong to the same structural class. To confirm if W466 (1) and W499 (2) may have the same molecular target, W466 (1) and W499 (2) were each evaluated for cross resistance against their respective resistant populations from the pulsed forward genetic study (Fig. 2).

Data set [7] relates to Pf Dd2 parental line. The following applies: known drug controls; ref Nguyen, Dans et al. [8]; cited from earlier work.
The subject of data set [8] is P. falciparum 3D7 parasites. Briefly: P. falciparum 3D7 asexual stage LDH assay (72 h). Type of data set: cell-based, Plasmodium falciparum. The following applies: Plasmodium falciparum, 3D7 / DSM 265, parent 3D7 for resistant populations; LDH assay, 3 experiments (SYBR-green for DSM265); read-out: Pf 3D7 EC50 (SD). An outline of the steps:
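Asexual P. falciparum 3D7 parasites were grown for 72 h over a 10-point, 3-fold series starting at 1 μM in 0.1% DMSO, with 100 nM chloroquine as negative growth control. After freeze-thaw, parasite LDH was read at 650 nm, and EC50 came from a variable-slope sigmoidal fit.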

Data set [9] relates to Pf 3D7 3-oxadiazole quinolone resistant strain with a V259L mutation in the Qo site of cyt b. On the set-up: method as in Nguyen, Dans et al. [8]. The following applies: known drug controls; ref Nguyen, Dans et al. [8]; read-out: Pf cyt b mutant strains EC50 3D7 cyt b(V259L); cited from earlier work.
Data set [10] has as its system Pf Dd2 strain with an I22L mutation in the Qi site cyt b. Details: method as in Nguyen, Dans et al. [8]. Conditions: known drug controls; ref Nguyen, Dans et al. [8]; read-out: Pf cyt b mutant strains EC50 Dd2 cyt b(I22L); cited from earlier work.
The subject of data set [11] is human HepG2 cell line. Briefly: Human HepG2 growth inhibition assay (Cell TitreGlo, 48 h). The following applies: HepG2 cell growth inhibition over 48 h. The format is cell-based. The method, boiled down:
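HepG2 cells (1000/well, DMEM + 10% FCS) exposed 48 h at 37 °C, 5% CO2 to compound from 50 μM top concentration in 1:2 dilutions, 0.5% DMSO final. Viability read by Cell Titer Glo, normalised to DMSO and 10 μM bortezomib; EC50 by four-parameter variable-slope fit.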

Where [12] appears, read: DSM265, read-out: W499-resistant populations EC50 (SD) #2.
Setting [13] is: DSM265, read-out: W499-resistant populations EC50 (SD) #3.
The mark [14] stands for this setting: read-out: W466-resistant populations EC50 (SD) #1.
[15] abbreviates: read-out: W466-resistant populations EC50 (SD) #2.
Where [16] appears, read: read-out: W466-resistant populations EC50 (SD) #3.

The term EC50 denotes the concentration that produces a half-maximal response. In the case of `O=C1C(O)=C([C@H]2CC[C@H](c3ccc(Cl)cc3)CC2)C(=O)c2ccccc21` [ATQ, atovaquone], the EC50 in data set [1] was above 10000 nM; in data set [4] it was above 10000 nM; in [5] (setting [12]) it was 4 nM; in data set [5] (setting [13]), 3 nM; in data set [6] (read-out: EC50 against W466-resistant parasites) it was 1 nM; in [6] (setting [14]), 2 nM. The EC50 in [6] (setting [15]), in data set [6] (setting [16]), in data set [7] and in [8] was 1 nM throughout. Moreover, in data set [2], the “effect on malate-dependent oxygen consumption rate (OCR)” value is recorded as “an OCR reduction was detected”. The “asexual stage of arrest” value in [3] was “arrest at the trophozoite stage”.

In the case of `Cc1cc(Nc2ccc(S(F)(F)(F)(F)F)cc2)n2nc(C(C)(F)F)nc2n1` [DSM265], the half-maximal effective concentration (EC50) in data set [1] was above 10000 nM; in [4] it was above 10000 nM; in [5] (setting [12]) it was above 1000 nM; in data set [5] (setting [13]) it was above 1000 nM; in [5] (read-out: EC50 against W499-resistant parasites) it was above 1000 nM; in data set [6] (setting [14]), 19 nM. In addition, the EC50 in data set [6] (setting [15]) was 13 nM; in data set [6] (setting [16]), 13 nM; in [7] it was 24 nM; in data set [8], 53 nM. In addition, the “effect on malate-dependent oxygen consumption rate (OCR)” value in data set [2] is “didn't change the basal OCR”. Moreover, in data set [5], the “fold shift in EC50 against W499-resistant populations compared to wildtype 3D7” value is on record as above 10 fold.

In the case of `COc1cc2[nH]c(C)c(-c3ccc(Oc4ccc(OC(F)(F)F)cc4)cc3)c(=O)c2cc1Cl` [ELQ300], in [5], the “fold shift in EC50 against W499-resistant populations compared to wildtype 3D7” value was determined as 2 fold. The EC50 is 53 nM in data set [5] (setting [12]); 45 nM in [5] (setting [13]); 36 nM in data set [6] (setting [14]); 18 nM in data set [6] (setting [15]); 20 nM in data set [6] (setting [16]); 12 nM in data set [9]. Moreover, the EC50 in data set [10] is 176 nM; in data set [7], 21 nM; in data set [8], 13 nM.

Usually CC50 stands for the concentration giving 50% cytotoxicity. The molecule “N-Cyclopropyl-4-((cyclopropyl(3,4-dimethylbenzyl)amino)methyl)benzamide [Compound 79]” had a CC50 in [11] above 40000 nM.
